This is an account of results in patent US20220378948A1, “METAL-BINDING PEPTIDE, AND USE THEREOF” (The Jikei University, priority 2019, published 2022).

This assay is described as follows: Adsorption on stent in plasma, fluorescence microscopy. The format is binding. Conditions: stent immersed in human plasma (37° C., 30 minutes), then 0.5 mM solution. As to the method:
Next, in order to analyze the binding ability of the peptide of the present invention and the 4-branched peptide complex to a stent existing in plasma, whether or not the peptide of the present invention also binds to a stent that has been allowed to come into contact with plasma was examined.
That is, a stent was immersed in human plasma (37° C., 30 minutes), and was then removed from the plasma. The stent was then immersed in each peptide solution (0.5 mM) and a 4-branched peptide complex solution (0.5 mM) (37° C., 30 minutes). Thereafter, the stent was sufficiently rinsed with PBS, and was then observed under an upright fluorescence microscope.

In the case of “SEQ ID NO: 9: control peptide that does not bind to a Co—Cr stent; sequence not printed in the text (MKAHHSQLYPRH)”, the “binding to the surface of a stent in human plasma (fluorescence)” value is “does not bind to a Co—Cr stent”.
